Data from US20220000817A1, “PROGNOSIS AND TREATMENT OF METASTATIC CANCER” (Academia Sinica, priority 2018, published 2022).
Where a SMILES comes first, the peptide text is derived from it. The star is where a group is joined. Cbz = O=C(OCc1ccccc1)*

How the values were obtained:
EFHD2 [1] = assay: Western blot of EFHD2 expression in cancer cells; type: cell-based, human; conditions: H1299 and F4 cells
Experimental: Cell lines and cell culture. Human lung adenocarcinoma cells A549 and H1299 were obtained from the American Type Culture Collection (ATCC, Maryland, USA). Human lung adenocarcinoma cell lines CL1-0 were from National Taiwan University Hospital, Taipei, Taiwan. Cell line CL1-5-F4 (F4) was established by selection of increasingly invasive cell populations from CL1-0 in according to procedures described by Chu Y W et al (Am J Respir Cell Mol Biol (1997) 17:353-360). H1299 and F4 cells were cultured in DMEM/F-12 media (Invitrogen). A549 and CL1-0 cells were maintained in RPMI 1640 media (Invitrogen). All culture media were supplemented with 10% fetal bovine serum and 1% antibiotics (GIBCO). All cells were grown in a humidified atmosphere of 5% CO2 and 95% air at 37° C. Western blot analysis. Proteins were separated using 10% or 12.5% SDS-PAGE and transferred onto a PVDF membrane via electroblotting at […] at 4° C. for 3 hr in 25 mmol/L Tris-HCl, 197 mmol/L glycine, and 13.3% (v/v) methanol. Then, 5% (w/v) skim milk in TBST was used for the blocking reaction, and the primary antibodies were incubated at room temperature overnight. After TBST washes, horseradish peroxidase-conjugated secondary antibodies were further incubated at room temperature for 1 hr. […] The primary antibodies used in this study included EFHD2 (ab106667; abcam), E-cadherin (#5296; Cell Signaling), vimentin (#3932; Cell Signaling), CAV1 (#3238; Cell Signaling), and β-actin (ab8226; abeam). […] Results are illustrated in FIG. 4.

F4 cells = assay: Sensitization of F4 cells to cisplatin by 2-APAs; type: cell-based, human; conditions: F4 cells pre-treated with 20 μM 2-APA, data not shown
Source text: In this example, the effect of 2-APAs (e.g., ibuprofen, flurbiprofen, naproxen and ketoprofen) and cisplatin on F4 cells were investigated.

EFHD2 [2] = assay: Ibuprofen-induced EFHD2 degradation with proteasome/lysosome inhibitors, western blot; type: cell-based, human; conditions: H1299 cells pretreated 0.5 hr, then 600 μM ibuprofen
Experimental: FIG. 6. Ibuprofen activates both proteasomal and lysosomal degradation of EFHD2. H1299 cells were pretreated with MG132 and/or Baf-A1 for 0.5 hr, then followed by the treatment of 600 μM ibuprofen for the indicated time. EFHD2 expression was determined by western blot assay.
Western blot analysis. Proteins were separated using 10% or 12.5% SDS-PAGE and transferred onto a PVDF membrane via electroblotting at 400V at 4° C. for 3 hr in 25 mmol/L Tris-HCl, 197 mmol/L glycine, and 13.3% (v/v) methanol. Then, 5% (w/v) skim milk in TBST was used for the blocking reaction, and the primary antibodies were incubated at room temperature overnight. After TBST washes, horseradish peroxidase-conjugated secondary antibodies were further incubated at room temperature for 1 hr. […] The primary antibodies used in this study included EFHD2 (ab106667; abcam), E-cadherin (#5296; Cell Signaling), vimentin (#3932; Cell Signaling), CAV1 (#3238; Cell Signaling), and β-actin (ab8226; abeam).
As ubiquitin-proteasome pathway and autophagy-lysosome pathway are two major systems responsible for cellular protein degradation, we then investigated whether any of the two systems has involved in ibuprofen-mediated EFHD2 degradation.

H1299 cells [3] = assay: MTT cell survival, H1299 shGFP / shEFHD2 cells; type: cell-based, human; conditions: H1299^shGFP and H1299^shEFHD2 cells, cisplatin alone, MTT 24 hours
Experimental: MTT assay was used to determine cell survival ratio in the control cells (H1299^shGFP) or cells having the expression of EFHD2 being knock-out via interference RNA (H1299^shEFHD2) with or without the treatment of ibuprofen and/or cisplatin.
MTT assay. […] The absorbance of the solution at 570 nm was measured by spectrophotometer.
In this example, the mechanism of ibuprofen and its combination with a chemotherapeutic drug (i.e., cisplatin) were investigated via comparing their actions on the survival of H1299 cells in the presence or absence of EFHD2. To this purpose, H1299 cells were pre-treated with the present shRNA (i.e., H1299^shEFHD2) to knockdown the expression of EFHD2 in H1299 cells in accordance with procedures described in Example 1; and the control cells were pre-treated with shGFP. Results are depicted in FIG. 7.

H1299 cells [4] = assay: H1299 xenograft mouse model, tumor size; type: in vivo, BALB/c nude mice; conditions: cisplatin 5 mg/Kg injection once per week for 3 weeks; ibuprofen 25 mg/Kg orally; alone or in combination
Source text: Animals. All procedures (2017-305) involving animal research were approved by the Institutional Animal Care and Use Committee (IACUC) at Chinese Medical University Hospital (CMUH) (Taichung, Taiwan). 5-week-old male BALB/c nude mice (18 to 25 g) were obtained from the National Laboratory Animal Center (Taipei, Taiwan). Mice were maintained in an environment under a 12: 12 hr light/dark cycle with access to food and water ad libitum.
BALB/c nude mice were orthotropically xenografted with H1299 cells (1×10^6 cells) by stereotactic injection in the back. Mouse tumor progression (including growth and metastasis) was measured by IVIS weekly until week 7.
In this example, in vivo effect of the combined treatment of ibuprofen and cisplatin was investigated via the xenograft mouse model established in accordance with the procedures described in the “Materials and methods” section. For treatment purpose, mice were treated with cisplatin (5 mg/Kg, via injection, once per week for 3 weeks) and ibuprofen (25 mg/Kg, orally fed, on the day when cisplatin was injected, and 1 day prior to, and 1 day after the cisplatin injection), alone or in combination. Mice were then sacrificed and the tumors were isolated and further analyzed. Results are depicted in FIG. 9.

Row | Structure (SMILES) | expression of EFHD2 (EFHD2 [1]) | also measured
1 | CC1=C(CC(=O)O)c2cc(F)ccc2/C1=C\c1ccc([S+](C)[O-])cc1 (stereo not shown) [sulindac] | possessed no such effect | –
2 | CC(=O)Oc1ccccc1C(=O)O [aspirin] | possessed no such effect | –
3 | O=C(c1ccccc1)c1ccc2n1CCC2C(=O)O (stereo not shown) [ketorolac] | possessed no such effect | –
4 | CC(C(=O)O)c1cccc(C(=O)c2ccccc2)c1 (stereo not shown) [ketoprofen] | effective in suppressing the expression of EFHD2 | sensitivity to subsequent cisplatin treatment (cell death) (F4 cells): more sensitive to the subsequent treatment of cisplatin
5 | O=C(O)Cc1ccccc1Nc1c(Cl)cccc1Cl [diclofenac] | possessed no such effect | –
6 | CO/C1=C\C(C)=C\[C@@H](C)[C@@H](O)[C@@H](C)C/C(C)=C/C=C/[C@H](OC)[C@@H]([C@@H](C)[C@@H](O)[C@H](C)[C@@]2(O)C[C@@H](O)[C@H](C)[C@@H](C(C)C)O2)OC1=O [Baf-A1, bafilomycin A1] | – | effect on ibuprofen-induced EFHD2 degradation (EFHD2 [2]): incapable of reducing ibuprofen-induced EFHD2 degradation
7 | Cc1cccc(Nc2ccccc2C(=O)O)c1C [mefenamic acid] | possessed no such effect | –
8 | CN1C(C(=O)Nc2ccccn2)=C(O)c2ccccc2S1(=O)=O [piroxicam] | possessed no such effect | –
9 | N.N.[Cl][Pt][Cl] [cisplatin] | – | survival ratio (H1299 cells [3]): decreased with an increase in the concentration of cisplatin; size of the tumor (H1299 cells [4]): significantly reduce the size of the tumor
10 | CC(C)C[C@@H](C=O)NC(=O)[C@H](CC(C)C)NC(=O)[C@H](CC(C)C)NC(=O)OCc1ccccc1 [MG132] (Cbz-Leu-Leu-Leu-aldehyde) | – | effect on ibuprofen-induced EFHD2 degradation (EFHD2 [2]): incapable of reducing ibuprofen-induced EFHD2 degradation
11 | CC(C(=O)O)c1ccc(-c2ccccc2)c(F)c1 (stereo not shown) [flurbiprofen] | effective in suppressing the expression of EFHD2 | sensitivity to subsequent cisplatin treatment (cell death) (F4 cells): more sensitive to the subsequent treatment of cisplatin
12 | COc1ccc2cc([C@H](C)C(=O)O)ccc2c1 [naproxen] | effective in suppressing the expression of EFHD2 | sensitivity to subsequent cisplatin treatment (cell death) (F4 cells): more sensitive to the subsequent treatment of cisplatin
